# According to ChEMBL document CHEMBL1201862, “PubChem BioAssay data set” (2004):
#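 48-hour exposure; five concentrations; linearly interpolated endpoints. GI50 marks 50% less growth.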 The source made the active and inactive calls. Rule as the data show it: active = GI50 up to about 1.1 µM and inactive = higher.
# How the values were obtained:
# Assay in all cases: inhibition of tumour cell growth, NCI panel, 48 h
# ACHN = test system: ACHN
# HCT-116 = test system: HCT-116
# HL-60 = test system: HL-60
# Hs-578T = test system: Hs-578T
# M14 = test system: M14
# MDA-N = test system: MDA-N
# Malme-3M = test system: Malme-3M
# OVCAR-3 = test system: OVCAR-3
# OVCAR-5 = test system: OVCAR-5
# SK-MEL-28 = test system: SK-MEL-28
# SK-OV-3 = test system: SK-OV-3
# SN12C = test system: SN12C
# SNB-19 = test system: SNB-19
# SNB-75 = test system: SNB-75
# SR = test system: SR
# TK-10 = test system: TK-10
# LOX IMVI = test system: LOX IMVI
# OVCAR-8 = test system: OVCAR-8
# T47D = test system: T47D
SMILES,GI50 (ACHN),GI50 (HCT-116),GI50 (HL-60),GI50 (Hs-578T),GI50 (M14),GI50 (MDA-N),GI50 (Malme-3M),GI50 (OVCAR-3),GI50 (OVCAR-5),GI50 (SK-MEL-28),GI50 (SK-OV-3),GI50 (SN12C),GI50 (SNB-19),GI50 (SNB-75),GI50 (SR),GI50 (TK-10),GI50 (LOX IMVI),GI50 (OVCAR-8),GI50 (T47D)
CC(=O)C(C)C(=O)N1C(=O)N(C)C2(C)N(C)C(=O)NC12C (centres undefined),> 100 µM (inactive),> 100 µM (inactive),> 100 µM (inactive),> 100 µM (inactive),> 100 µM (inactive),> 100 µM (inactive),> 100 µM (inactive),> 100 µM (inactive),> 100 µM (inactive),> 100 µM (inactive),> 100 µM (inactive),> 100 µM (inactive),> 100 µM (inactive),> 100 µM (inactive),> 100 µM (inactive),> 100 µM (inactive),,,
c1ccc2c(c1)SCCCSCCSCCCS2,,> 100 µM (inactive),39.4 µM (inactive),,> 100 µM (inactive),> 100 µM (inactive),,> 100 µM (inactive),> 100 µM (inactive),> 100 µM (inactive),> 100 µM (inactive),> 100 µM (inactive),> 100 µM (inactive),> 100 µM (inactive),> 100 µM (inactive),> 100 µM (inactive),> 100 µM (inactive),> 100 µM (inactive),> 100 µM (inactive)
S=c1[nH]nc(Cn2c3ccc(Br)cc3c3nc4ccccc4nc32)o1,39.6 µM (inactive),28.3 µM (inactive),,,4.55 µM (inactive),41 µM (inactive),42.3 µM (inactive),29.9 µM (inactive),> 84.5 µM (inactive),27.3 µM (inactive),> 78.5 µM (inactive),51.9 µM (inactive),53 µM (inactive),86.1 µM (inactive),0.568 µM (active),69.5 µM (inactive),,43.2 µM (inactive),47.3 µM (inactive)
CSCCCNC(=O)c1csc([C@@H](CSC)NC(=O)CCNC(=O)[C@@H](NC(=O)OCC(Br)(Br)Br)C(C)O)n1 (some centres undefined),> 100 µM (inactive),> 100 µM (inactive),> 100 µM (inactive),> 100 µM (inactive),> 100 µM (inactive),> 100 µM (inactive),> 100 µM (inactive),> 100 µM (inactive),> 100 µM (inactive),> 100 µM (inactive),> 100 µM (inactive),> 100 µM (inactive),> 100 µM (inactive),> 100 µM (inactive),> 100 µM (inactive),> 100 µM (inactive),> 100 µM (inactive),> 100 µM (inactive),
COc1cccc(Cc2c3cc(OC)ccc3cc[n+]2C)c1,> 100 µM (inactive),,,,67.5 µM (inactive),,> 100 µM (inactive),47.5 µM (inactive),> 100 µM (inactive),33.9 µM (inactive),,32.6 µM (inactive),43.1 µM (inactive),32.8 µM (inactive),,> 100 µM (inactive),,73.6 µM (inactive),
CCCCCCCCCCCCCCCCCCOP1(=O)OCCO1,> 100 µM (inactive),49.5 µM (inactive),23.8 µM (inactive),,> 100 µM (inactive),> 100 µM (inactive),> 100 µM (inactive),> 100 µM (inactive),74 µM (inactive),> 100 µM (inactive),> 100 µM (inactive),> 100 µM (inactive),44.8 µM (inactive),> 100 µM (inactive),,30.4 µM (inactive),52.1 µM (inactive),> 100 µM (inactive),> 100 µM (inactive)
